Source: ChEMBL document CHEMBL1201862, “PubChem BioAssay data set” (2004)
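A five-concentration, 48-hour dose response in 96-well plates underlies each endpoint, interpolated linearly between surrounding concentrations. GI50 = concentration required for 50% inhibition of growth.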 Calls of active or inactive are those of the source. Cut-off read from the data, not from the text of the source: active = GI50 up to about 1.1 µM and inactive = higher.

Experiments:
Assay in all cases: DTP human tumour cell line panel, 48 h
M19-MEL = test system: M19-MEL
LXFL 529 = test system: LXFL 529
KM-20L2 = test system: KM-20L2
DMS-114 = test system: DMS-114
DLD-1 = test system: DLD-1
SNB-78 = test system: SNB-78
XF498 = test system: XF498
HOP-18 = test system: HOP-18
RXF 631 = test system: RXF 631

Structure (SMILES)	GI50 (M19-MEL)	GI50 (LXFL 529)	GI50 (KM-20L2)	GI50 (DMS-114)	GI50 (DLD-1)	GI50 (SNB-78)	GI50 (XF498)	GI50 (HOP-18)	GI50 (RXF 631)
C/C(CC(=O)Nc1ccc(C)c(C)c1)=N\NC(N)=O	> 100 µM (inactive)	> 100 µM (inactive)	> 100 µM (inactive)	> 100 µM (inactive)	> 100 µM (inactive)	> 100 µM (inactive)	–	–	–
Cc1nc2nnc(C)n2c2c1C(=O)Nc1ccccc1N2	> 100 µM (inactive)	> 100 µM (inactive)	> 100 µM (inactive)	> 100 µM (inactive)	> 100 µM (inactive)	> 100 µM (inactive)	> 100 µM (inactive)	> 100 µM (inactive)	–
CC1=NN(C(=O)c2ccncc2)C(=O)C1/N=N/c1ccc(F)cc1 (stereo not given)	> 100 µM (inactive)	> 100 µM (inactive)	> 100 µM (inactive)	> 100 µM (inactive)	> 100 µM (inactive)	63.1 µM (inactive)	> 100 µM (inactive)	–	–
Cn1c2cc([N+](=O)[O-])ccc2c(=O)c2c(O)cc3c(c21)C=CC(C)(C)O3	–	28.4 µM (inactive)	> 100 µM (inactive)	–	> 100 µM (inactive)	40.5 µM (inactive)	21 µM (inactive)	< 0.01 µM (active)	–
C/C(=N\NC(=N)N)C(CN1CCOCC1)C(c1ccccc1)c1c(O)c2ccccc2oc1=O (stereo not given)	> 100 µM (inactive)	> 100 µM (inactive)	> 100 µM (inactive)	45.8 µM (inactive)	> 100 µM (inactive)	50.8 µM (inactive)	> 100 µM (inactive)	> 100 µM (inactive)	–
NCCNc1cccc2ccccc12	> 100 µM (inactive)	> 100 µM (inactive)	> 100 µM (inactive)	> 100 µM (inactive)	> 100 µM (inactive)	> 100 µM (inactive)	–	> 100 µM (inactive)	> 100 µM (inactive)
CC1(O)CC2(O)C=CC3=C(C(=O)c4cccc(O)c4C3=O)C2(O)C(=O)C1O (stereo not given)	0.646 µM (active)	0.495 µM (active)	1.16 µM (inactive)	1.67 µM (inactive)	0.791 µM (active)	–	–	1.7 µM (inactive)	–
Cc1cc2c(c(C(N)=O)c1C)-c1cc(Cl)cc(Cl)c1C2=O	> 100 µM (inactive)	> 100 µM (inactive)	> 100 µM (inactive)	> 100 µM (inactive)	> 100 µM (inactive)	41.3 µM (inactive)	–	> 100 µM (inactive)	–
CC[C@@]1(OC(=O)CCC(=O)O)C(=O)OCc2c1cc1n(c2=O)Cc2cc3ccccc3nc2-1	0.239 µM (active)	2.01 µM (inactive)	0.979 µM (active)	0.046 µM (active)	1.58 µM (inactive)	2.77 µM (inactive)	0.497 µM (active)	0.492 µM (active)	0.427 µM (active)
CNS(=O)(=O)NNS(=O)(=O)c1cccc([N+](=O)[O-])c1	> 100 µM (inactive)	> 100 µM (inactive)	> 100 µM (inactive)	> 100 µM (inactive)	> 100 µM (inactive)	–	–	–	–
Cc1nc(O)nc(CC(O)(c2ccccc2)c2ccccc2)c1-c1ccccc1	> 100 µM (inactive)	> 100 µM (inactive)	> 100 µM (inactive)	80.5 µM (inactive)	> 100 µM (inactive)	> 100 µM (inactive)	–	> 100 µM (inactive)	> 100 µM (inactive)
COc1ccc(/C=N/NC(=O)NCCNCCO)cc1	> 100 µM (inactive)	> 100 µM (inactive)	> 100 µM (inactive)	> 100 µM (inactive)	> 100 µM (inactive)	> 100 µM (inactive)	–	> 100 µM (inactive)	–
CCOC(=O)NC(=O)c1cn(CCCOC(=O)CCCCCCCCC(=O)OCCCn2cc(C(=O)NC(=O)OCC)c(=O)n(C)c2=O)c(=O)n(C)c1=O	> 100 µM (inactive)	> 100 µM (inactive)	> 100 µM (inactive)	> 100 µM (inactive)	> 100 µM (inactive)	–	> 54.3 µM (inactive)	> 100 µM (inactive)	> 80.7 µM (inactive)
CCOC(=O)C1=C(C)N(NC(=O)Nc2ccccc2)C2(N)N(NC(=O)Nc3ccccc3)C(C)=C(C(=O)OCC)C12C#N (stereo not given)	17.8 µM (inactive)	18.6 µM (inactive)	18.7 µM (inactive)	16.1 µM (inactive)	19.4 µM (inactive)	19.4 µM (inactive)	–	16.3 µM (inactive)	–
CCCC/C=C1\CCC(CN2CCCC2)C1=O (stereo not given)	16.9 µM (inactive)	1.56 µM (inactive)	14.7 µM (inactive)	15.9 µM (inactive)	3.76 µM (inactive)	26.4 µM (inactive)	16.1 µM (inactive)	–	17.7 µM (inactive)
COC(=O)c1ccc(C(=O)OC)c2nc3cc(Cl)ccc3nc12	> 100 µM (inactive)	> 100 µM (inactive)	> 100 µM (inactive)	> 100 µM (inactive)	> 100 µM (inactive)	–	> 100 µM (inactive)	> 100 µM (inactive)	> 100 µM (inactive)
[N-]=[N+]=NC12CC3C4CC5CC3C(C1)C(C5)C4C2	> 100 µM (inactive)	> 100 µM (inactive)	–	> 100 µM (inactive)	> 100 µM (inactive)	> 100 µM (inactive)	> 100 µM (inactive)	> 100 µM (inactive)	> 100 µM (inactive)
OCCN(CCO)c1ncnc2c1sc(=S)n2-c1ccccc1	> 100 µM (inactive)	> 100 µM (inactive)	> 100 µM (inactive)	> 100 µM (inactive)	> 100 µM (inactive)	> 100 µM (inactive)	> 100 µM (inactive)	> 100 µM (inactive)	–
CN(C)c1ccc(/C=C2\C=Cc3ccccc32)cc1	> 100 µM (inactive)	56.4 µM (inactive)	42.6 µM (inactive)	22.1 µM (inactive)	51.8 µM (inactive)	–	–	> 100 µM (inactive)	–
COc1cc(C2c3cc4c(cc3[C@@H](Nc3cccc(O)c3)C3COC(=O)[C@H]23)OCO4)cc(OC)c1O (stereo not given in full)	1.97 µM (inactive)	2.55 µM (inactive)	2.16 µM (inactive)	0.794 µM (active)	3.56 µM (inactive)	6.03 µM (inactive)	0.766 µM (active)	8.59 µM (inactive)	–
Cc1ccc(/C=C/C(=O)c2sc(-c3cccnc3)nc2C)cc1	> 100 µM (inactive)	–	> 100 µM (inactive)	–	> 100 µM (inactive)	> 100 µM (inactive)	–	> 100 µM (inactive)	> 100 µM (inactive)
CCOC(=O)C12CCSC1C1(C#N)C(C#N)=CC2(N=P(c2ccccc2)(c2ccccc2)c2ccccc2)n2c(=O)n(-c3ccccc3)c(=O)n21 (stereo not given)	33.4 µM (inactive)	28.8 µM (inactive)	65 µM (inactive)	29.4 µM (inactive)	35.9 µM (inactive)	68.5 µM (inactive)	24.3 µM (inactive)	–	70 µM (inactive)
N=C(NNS(=O)(=O)c1ccccc1)Oc1ccc(Br)cc1Br	> 100 µM (inactive)	> 100 µM (inactive)	> 100 µM (inactive)	> 100 µM (inactive)	> 100 µM (inactive)	> 100 µM (inactive)	> 100 µM (inactive)	> 100 µM (inactive)	> 100 µM (inactive)
Cc1nc(Nc2ccccc2)sc1C(=O)CC(=O)C(=O)NC12CC3CC(CC(C3)C1)C2	> 100 µM (inactive)	99.5 µM (inactive)	80.7 µM (inactive)	78.7 µM (inactive)	80.5 µM (inactive)	> 100 µM (inactive)	> 100 µM (inactive)	> 100 µM (inactive)	–
N#CC1=C(N)Oc2c(ccc3cccnc23)C1c1ccccc1 (stereo not given)	1.67 µM (inactive)	1.7 µM (inactive)	0.555 µM (active)	0.914 µM (active)	2.3 µM (inactive)	1.45 µM (inactive)	7.98 µM (inactive)	> 100 µM (inactive)	–
Cc1nc2c(n1CC(C)(C)C)C(=O)c1ccccc1C2=O	–	> 100 µM (inactive)	> 100 µM (inactive)	–	> 100 µM (inactive)	> 100 µM (inactive)	> 100 µM (inactive)	–	–
CCOC(=O)[C@H]1Nc2ccc(OC)cc2C2c3ccccc3CC21 (stereo not given in full)	> 100 µM (inactive)	> 100 µM (inactive)	> 100 µM (inactive)	> 100 µM (inactive)	> 100 µM (inactive)	> 100 µM (inactive)	> 100 µM (inactive)	–	> 100 µM (inactive)
N#Cc1ccc(Nc2cnc3cc(N)ccc3n2)cc1	89.7 µM (inactive)	59.7 µM (inactive)	94 µM (inactive)	60.5 µM (inactive)	> 100 µM (inactive)	> 100 µM (inactive)	74.6 µM (inactive)	–	–
CCN(CCCl)CCCCCNc1c2ccccc2nc2ccc(OC)cc12	0.476 µM (active)	0.444 µM (active)	0.655 µM (active)	0.334 µM (active)	0.35 µM (active)	0.736 µM (active)	0.251 µM (active)	–	–
COc1cc2c(cc1OC)C(Cc1ccc(Oc3cc(CC4c5cc(OC)c(OC)cc5CCN4C)ccc3O)cc1)N(C)CC2 (stereo not given)	21 µM (inactive)	14.8 µM (inactive)	13.1 µM (inactive)	16.3 µM (inactive)	18.7 µM (inactive)	28.5 µM (inactive)	18.3 µM (inactive)	26.5 µM (inactive)	–
